Results: patent US6737383B1, “Herbicidal oxadiazolidines” (priority 1999, dated 2004)

Assays:
[1] = system: crabgrass; experiment: Test B pre/postemergence crabgrass; format: in vivo, Digitaria sanguinalis
Outline: (§1)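 Herbicidal effect was estimated by eye on a ten-point control scale after plants spent twelve to sixteen days in a greenhouse following soil or foliar treatment. Foliar sprays targeted plants at one to four leaves; all doses were formulated in a non-phytotoxic solvent with surfactant.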

[2] = system: purple nutsedge; experiment: Test B pre/postemergence purple nutsedge; format: in vivo, Cyperus rotundus
Outline: as §1

[3] = system: duck salad; experiment: Test B flood test duck salad; format: in vivo, Heteranthera limosa
Outline: (§2)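 Flood test on plants grown to the 2-leaf stage; treated plants kept in greenhouse twelve to sixteen days, then visually rated against controls on a 0 (no effect) to 10 (complete control) scale.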

[4] = system: bamyardgrass; experiment: Test B flood test barnyardgrass; format: in vivo, Echinochloa crus-galli
Outline: as §2

[5] = system: winter wheat; experiment: Test E winter wheat; format: in vivo, Triticum aestivum; conditions: Postemergence; for Plant response rating, Wheat (winter): 0 to 100 scale, 0 is no effect, 100 is complete control
Outline: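 Compounds formulated in non-phytotoxic solvent mixture with surfactant; for postemergence, sprayed on plants at 1- to 4-leaf stage grown in 60:40 sandy loam/greenhouse potting mix. Kept in greenhouse ~21 to 28 days, then visually rated against untreated controls.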

[6] = system: common groundsel; experiment: Test D common groundsel; format: in vivo, Senecio vulgaris; conditions: Postemergence, 0 to 100 scale
[7] = system: pitted morningglory; experiment: Test D pitted morningglory; format: in vivo, Ipomoea lacunosa; conditions: Postemergence, 0 to 100 scale
[8] = system: Spanishneedles; experiment: Test D Spanishneedles; format: in vivo, Bidens bipinnata
[9] = system: tall mallow; experiment: Test D tall mallow; format: in vivo, Malva sylvestris; conditions: Postemergence, 0 to 100 scale
[10] = system: blackgrass; experiment: Test E blackgrass; format: in vivo, Alopecurus myosuroides; conditions: Preemergence
[11] = system: green foxtail; experiment: Test E green foxtail; format: in vivo, Setaria viridis; conditions: Preemergence
[12] = system: Italian ryegrass; experiment: Test E Italian ryegrass; format: in vivo, Lolium multiflorum; conditions: Preemergence
[13] = system: winter wheat; experiment: Test E winter wheat; format: in vivo, Triticum aestivum; conditions: Preemergence
[14] = system: wild oat; experiment: Test E wild oat; format: in vivo, Avena fatua; conditions: Preemergence
[15] = system: winter barley; experiment: Test E winter barley; format: in vivo, Hordeum vulgare; conditions: Preemergence
[16] = system: Green foxtail; experiment: Test D green foxtail; format: in vivo; conditions: Postemergence, 0 to 100 scale, 0 no injury, 100 complete control
[17] = Preemergence, Rate 62 g/ha, scale of 0 to 10 where 0 is no effect and 10 is complete control
[18] = Preemergence, Rate 250 g/ha, scale of 0 to 10 where 0 is no effect and 10 is complete control
[19] = Preemergence, Rate 500 g/ha, scale of 0 to 10 where 0 is no effect and 10 is complete control
[20] = Rate 62 g/ha, Postemergence, scale of 0 to 10 where 0 is no effect and 10 is complete control
[21] = Rate 125 g/ha, Preemergence, scale of 0 to 10 where 0 is no effect and 10 is complete control
[22] = Rate 500 g/ha, Postemergence, scale 0 to 10, 0 no effect, 10 complete control
[23] = Rate 62 g/ha, headed Pre-emergence (flood test species), scale 0 to 10 (0 no effect, 10 complete control)
[24] = Rate 125 g/ha, Pre-emergence, flood test species, scale 0 to 10 where 0 is no effect and 10 is complete control
[25] = Rate 250 g/ha, Pre-emergence, flood-test species, scale 0 to 10, 0 is no effect, 10 is complete control
[26] = Rate 500 g/ha, Pre-emergence, flood test species, scale 0 to 10 (0 no effect, 10 complete control)
[27] = Rate 16 g/ha, 0 no injury, 100 complete control
[28] = Rate 32 g/ha, 0 no injury, 100 complete control
[29] = Rate 64 g/ha, 0 no injury, 100 complete control
[30] = Rate 125 g/ha, 0 no injury, 100 complete control
[31] = Rate 16 g/ha; Postemergence; 0 to 100 scale, 0 no injury, 100 complete control
[32] = Rate 64 g/ha, Postemergence; 0 to 100 scale, 0 no injury, 100 complete control
[33] = Rate 125 g/ha, Postemergence; 0 to 100 scale, 0 no injury, 100 complete control
[34] = Rate 250 g/ha; Postemergence; 0 to 100 scale
[35] = Rate 125 g/ha, 0 to 100 scale (0 no effect, 100 complete control)
[36] = Rate 500 g/ha, 0 to 100 scale where 0 is no effect and 100 is complete control
[37] = Postemergence, Rate 125 g/ha, scale 0 to 10, 0 is no effect, 10 is complete control
[38] = Postemergence, Rate 250 g/ha, scale 0 to 10, 0 is no effect, 10 is complete control
[39] = Preemergence, Rate 62 g/ha, scale 0 to 10 (0 no effect, 10 complete control)
[40] = Postemergence (flood test), Rate 125 g/ha, scale 0 to 10, 0 is no effect, 10 is complete control
[41] = Rate 62 g/ha, Postemergence (flood test species), scale of 0 to 10 where 0 is no effect and 10 is complete control
[42] = Rate 500 g/ha, listed under Postemergence (flood test species), scale 0 to 10, 0 no effect, 10 complete control
[43] = flood test species, listed under Postemergence, Rate 250 g/ha, scale 0 to 10, 0 is no effect, 10 is complete control

CC(C)N(C(=O)n1oc(=O)n(C2CC2)c1=O)c1ccccc1 [Compound 243]
Crabgrass plant response rating [1, 17]: 7
Crabgrass plant response rating [1, 18]: 9
Plant response rating, Crabgrass [1, 19]: 10
Crabgrass plant response rating [1, 20]: 3
Crabgrass plant response rating [1, 21]: 8
Plant response rating (0 to 10; 0 is no effect, 10 is complete control), Crabgrass ([1]; Rate 250 g/ha, Postemergence): 9
Crabgrass plant response rating [1, 22]: 9
Nutsedge plant response rating [2, 17]: 0
Nutsedge plant response rating [2, 18]: 0
Nutsedge plant response rating [2, 20]: 0
Nutsedge plant response rating [2, 21]: 0
Nutsedge plant response rating [2, 22]: 7
Ducksalad plant response rating [3, 23]: 0
Ducksalad plant response rating [3, 24]: 0
Ducksalad plant response rating [3, 25]: 0
Ducksalad plant response rating [3, 26]: 0
Barnyardgrass plant response rating [4, 23]: 0
Barnyardgrass plant response rating [4, 24]: 0
Barnyardgrass plant response rating [4, 25]: 0
Barnyardgrass plant response rating [4, 26]: 0
Plant response rating, Wheat (winter) ([5]; Rate 125 g/ha): 70
Wheat (winter) plant response rating ([5]; Rate 250 g/ha, 0 to 100 scale where 0 is no effect and 100 is complete control): 75
Plant response rating, Wheat (winter) ([5]; Rate 500 g/ha): 80
Plant response rating, Com. groundsel [6, 27]: 0
Plant response rating, Com. groundsel [6, 28]: 0
Plant response rating, Com. groundsel [6, 29]: 0
Plant response rating, Com. groundsel [6, 30]: 100
Plant response rating, Com. groundsel ([6]; Rate 250 g/ha): 100
Plant response rating, P. morninglory [7, 27]: 0
Plant response rating, P. morninglory [7, 28]: 0
Plant response rating, P. morninglory [7, 29]: 0
Plant response rating, P. morninglory [7, 30]: 0
Plant response rating, P. morninglory ([7]; Rate 250 g/ha): 40
Plant response rating, Spanishneedles ([8]; Postemergence; Rate 32 g/ha; 0 to 100 scale, 0 no injury, 100 complete control): 50
Plant response rating, Spanishneedles [8, 31]: 0
Plant response rating, Spanishneedles ([8]; Rate 32 g/ha; Postemergence; 0 to 100 scale, 0 no injury, 100 complete control): 0
Spanishneedles plant response rating [8, 32]: 50
Spanishneedles plant response rating [8, 33]: 20
Plant response rating, Spanishneedles [8, 34]: 100
Plant response rating, Tall Mallow [9, 27]: 50
Plant response rating, Tall Mallow [9, 28]: 20
Tall Mallow plant response rating [9, 29]: 30
Tall Mallow plant response rating [9, 30]: 40
Plant response rating, Tall Mallow ([9]; Rate 250 g/ha): 60
Plant response rating, Blackgrass [10, 35]: 65
Blackgrass plant response rating (0 to 100 scale) ([10]; Rate 250 g/ha): 85
Plant response rating, Blackgrass [10, 36]: 100
Plant response rating, Green foxtail [11, 35]: 75
Green foxtail plant response rating (0 to 100 scale) ([11]; Rate 250 g/ha): 100
Plant response rating, Green foxtail [11, 36]: 100
Plant response rating, I. Ryegrass [12, 35]: 70
I. Ryegrass plant response rating (0 to 100 scale) ([12]; Rate 250 g/ha): 85
Plant response rating, I. Ryegrass [12, 36]: 100
Plant response rating, Wheat (winter) [13, 35]: 50
Wheat (winter) plant response rating (0 to 100 scale) ([13]; Rate 250 g/ha): 70
Plant response rating, Wheat (winter) [13, 36]: 75
Plant response rating, Wild oat [14, 35]: 60
Wild oat plant response rating (0 to 100 scale) ([14]; Rate 250 g/ha): 55
Plant response rating, Wild oat [14, 36]: 90
Plant response rating, Barley (winter) [15, 35]: 30
Barley (winter) plant response rating (0 to 100 scale) ([15]; Rate 250 g/ha): 60
Plant response rating, Barley (winter) [15, 36]: 70
Green foxtail plant response rating ([16]; Rate 64 g/ha): 100
Green foxtail plant response rating ([16]; Rate 125 g/ha): 100

CC(C)N(C(=O)n1oc(=O)n(C2(C)CC2)c1=O)c1ccccc1 [Compound 360]
Plant response rating, Crabgrass [1, 37]: 2
Plant response rating, Crabgrass [1, 38]: 5
Plant response rating, Crabgrass [1, 39]: 9
Crabgrass plant response rating (0 to 10 scale) ([1]; Preemergence, Rate 125 g/ha): 10
Crabgrass plant response rating [1, 18]: 10
Crabgrass plant response rating [1, 19]: 10
Crabgrass plant response rating [1, 20]: 2
Plant response rating, Crabgrass [1, 22]: 5
Plant response rating, Nutsedge [2, 37]: 0
Plant response rating, Nutsedge [2, 38]: 2
Plant response rating, Nutsedge [2, 39]: 0
Nutsedge plant response rating (0 to 10 scale) ([2]; Preemergence, Rate 125 g/ha): 0
Nutsedge plant response rating [2, 18]: 0
Nutsedge plant response rating [2, 19]: 7
Nutsedge plant response rating [2, 20]: 0
Plant response rating, Nutsedge [2, 22]: 4
Plant response rating, Ducksalad [3, 40]: 0
Ducksalad plant response rating [3, 41]: 0
Plant response rating, Ducksalad [3, 42]: 0
Plant response rating, Ducksalad [3, 43]: 0
Plant response rating, Barnyardgrass [4, 40]: 2
Barnyardgrass plant response rating [4, 41]: 2
Plant response rating, Barnyardgrass [4, 42]: 7
Plant response rating, Barnyardgrass [4, 43]: 6
Plant response rating, Com. groundsel [6, 29]: 0
Plant response rating, Com. groundsel [6, 30]: 100
Plant response rating, Com. groundsel ([6]; Rate 250 g/ha): 100
Plant response rating, P. morninglory [7, 27]: 0
Plant response rating, P. morninglory [7, 28]: 0
Plant response rating, P. morninglory [7, 29]: 0
Plant response rating, P. morninglory [7, 30]: 0
Plant response rating, P. morninglory ([7]; Rate 250 g/ha): 10
Plant response rating, Spanishneedles [8, 31]: 0
Spanishneedles plant response rating [8, 32]: 0
Spanishneedles plant response rating [8, 33]: 0
Plant response rating, Spanishneedles [8, 34]: 20
Plant response rating, Tall Mallow [9, 27]: 0
Plant response rating, Tall Mallow [9, 28]: 0
Tall Mallow plant response rating [9, 29]: 40
Tall Mallow plant response rating [9, 30]: 60
Plant response rating, Tall Mallow ([9]; Rate 250 g/ha): 90
Green foxtail plant response rating ([16]; Rate 64 g/ha): 100
Green foxtail plant response rating ([16]; Rate 125 g/ha): 100
